ChEMBL document CHEMBL1201862, “PubChem BioAssay data set” (2004)
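Values below derive from 48-hour exposures of cells grown in 96-well plates, with endpoints linearly interpolated between the two concentrations bracketing the appropriate inhibition level. GI50: concentration for 50% inhibition of growth.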 Calls of active or inactive are those of the source. Rule as the data show it: active = GI50 up to about 1.1 µM and inactive = higher.

Columns and labels:
Test in all cases: NCI tumour cell line growth inhibition, 48 h
786-0 = test system: 786-0
A498 = test system: A498
A549 = test system: A549
ACHN = test system: ACHN
BT-549 = test system: BT-549
CAKI-1 = test system: CAKI-1
CCRF-CEM = test system: CCRF-CEM
COLO 205 = test system: COLO 205
DU-145 = test system: DU-145
EKVX = test system: EKVX
HCC 2998 = test system: HCC 2998
HCT-116 = test system: HCT-116
HCT-15 = test system: HCT-15
HL-60 = test system: HL-60
HOP-62 = test system: HOP-62
HOP-92 = test system: HOP-92
HT-29 = test system: HT-29
Hs-578T = test system: Hs-578T
IGROV-1 = test system: IGROV-1
K562 = test system: K562
KM12 = test system: KM12
LOX IMVI = test system: LOX IMVI
M14 = test system: M14
MCF7 = test system: MCF7
MDA-MB-231 = test system: MDA-MB-231
MDA-MB-435 = test system: MDA-MB-435
MDA-N = test system: MDA-N
MOLT-4 = test system: MOLT-4
Malme-3M = test system: Malme-3M
NCI-H226 = test system: NCI-H226
NCI-H23 = test system: NCI-H23
NCI-H460 = test system: NCI-H460
NCI-H522 = test system: NCI-H522
NCI/ADR-RES = test system: NCI/ADR-RES
OVCAR-3 = test system: OVCAR-3
OVCAR-4 = test system: OVCAR-4
OVCAR-5 = test system: OVCAR-5
OVCAR-8 = test system: OVCAR-8
PC-3 = test system: PC-3
RPMI-8226 = test system: RPMI-8226
RXF 393 = test system: RXF 393
SF-268 = test system: SF-268
SF-295 = test system: SF-295
SK-MEL-28 = test system: SK-MEL-28
SK-MEL-2 = test system: SK-MEL-2
SK-MEL-5 = test system: SK-MEL-5
SK-OV-3 = test system: SK-OV-3
SN12C = test system: SN12C
SNB-19 = test system: SNB-19
SNB-75 = test system: SNB-75
SR = test system: SR
SW-620 = test system: SW-620
T47D = test system: T47D
U-251 = test system: U-251
UACC-257 = test system: UACC-257
UACC-62 = test system: UACC-62
UO-31 = test system: UO-31
TK-10 = test system: TK-10

CC1(CCCO)CCCCCC(C)(CCCO)C1=O (stereo unspecified)
GI50 (786-0): > 100 µM (inactive) | GI50 (A498): > 100 µM (inactive) | GI50 (A549): > 100 µM (inactive) | GI50 (ACHN): > 100 µM (inactive) | GI50 (BT-549): > 100 µM (inactive) | GI50 (CAKI-1): > 100 µM (inactive) | GI50 (CCRF-CEM): > 100 µM (inactive) | GI50 (COLO 205): > 100 µM (inactive) | GI50 (DU-145): > 100 µM (inactive) | GI50 (EKVX): > 100 µM (inactive) | GI50 (HCC 2998): > 100 µM (inactive) | GI50 (HCT-116): > 100 µM (inactive) | GI50 (HCT-15): > 100 µM | GI50 (HL-60): > 100 µM (inactive) | GI50 (HOP-62): > 100 µM (inactive) | GI50 (HOP-92): > 100 µM (inactive) | GI50 (HT-29): > 100 µM (inactive) | GI50 (Hs-578T): > 100 µM (inactive) | GI50 (IGROV-1): > 100 µM (inactive) | GI50 (K562): > 100 µM (inactive) | GI50 (KM12): > 100 µM (inactive) | GI50 (LOX IMVI): > 100 µM (inactive) | GI50 (M14): > 100 µM (inactive) | GI50 (MCF7): 70.6 µM (inactive) | GI50 (MDA-MB-231): > 100 µM (inactive) | GI50 (MDA-MB-435): > 100 µM (inactive) | GI50 (MDA-N): > 100 µM (inactive) | GI50 (MOLT-4): > 100 µM (inactive) | GI50 (Malme-3M): > 100 µM (inactive) | GI50 (NCI-H226): > 100 µM (inactive) | GI50 (NCI-H23): > 100 µM (inactive) | GI50 (NCI-H460): > 100 µM (inactive) | GI50 (NCI-H522): > 100 µM (inactive) | GI50 (NCI/ADR-RES): > 100 µM (inactive) | GI50 (OVCAR-3): > 100 µM (inactive) | GI50 (OVCAR-4): > 100 µM (inactive) | GI50 (OVCAR-5): > 100 µM (inactive) | GI50 (OVCAR-8): > 100 µM (inactive) | GI50 (PC-3): > 100 µM (inactive) | GI50 (RPMI-8226): > 100 µM (inactive) | GI50 (RXF 393): > 100 µM (inactive) | GI50 (SF-268): > 100 µM (inactive) | GI50 (SF-295): > 100 µM (inactive) | GI50 (SK-MEL-28): > 100 µM (inactive) | GI50 (SK-MEL-2): > 100 µM (inactive) | GI50 (SK-MEL-5): > 100 µM (inactive) | GI50 (SK-OV-3): > 100 µM (inactive) | GI50 (SN12C): > 100 µM (inactive) | GI50 (SNB-19): > 100 µM (inactive) | GI50 (SNB-75): 92.3 µM (inactive) | GI50 (SR): > 100 µM (inactive) | GI50 (SW-620): > 100 µM (inactive) | GI50 (T47D): > 100 µM (inactive) | GI50 (U-251): > 100 µM (inactive) | GI50 (UACC-257): > 100 µM (inactive) | GI50 (UACC-62): > 100 µM (inactive) | GI50 (UO-31): > 100 µM (inactive)

CCOC(=O)C1=c2[nH]c3cccc4cccc(c43)n2C(=O)CC1c1ccccc1 (stereo unspecified)
GI50 (786-0): > 100 µM (inactive) | GI50 (A498): > 100 µM (inactive) | GI50 (A549): > 100 µM (inactive) | GI50 (ACHN): > 100 µM (inactive) | GI50 (BT-549): > 100 µM (inactive) | GI50 (CAKI-1): > 100 µM (inactive) | GI50 (CCRF-CEM): > 100 µM (inactive) | GI50 (COLO 205): > 100 µM (inactive) | GI50 (DU-145): > 100 µM (inactive) | GI50 (EKVX): > 100 µM (inactive) | GI50 (HCC 2998): > 100 µM (inactive) | GI50 (HCT-116): > 100 µM (inactive) | GI50 (HCT-15): > 100 µM | GI50 (HL-60): 95.5 µM (inactive) | GI50 (HOP-62): > 100 µM (inactive) | GI50 (HOP-92): > 100 µM (inactive) | GI50 (HT-29): > 100 µM (inactive) | GI50 (Hs-578T): > 100 µM (inactive) | GI50 (IGROV-1): > 100 µM (inactive) | GI50 (K562): > 100 µM (inactive) | GI50 (KM12): > 100 µM (inactive) | GI50 (LOX IMVI): > 100 µM (inactive) | GI50 (M14): > 100 µM (inactive) | GI50 (MCF7): > 100 µM (inactive) | GI50 (MDA-MB-231): > 100 µM (inactive) | GI50 (MDA-MB-435): > 100 µM (inactive) | GI50 (MDA-N): > 100 µM (inactive) | GI50 (MOLT-4): > 100 µM (inactive) | GI50 (Malme-3M): > 100 µM (inactive) | GI50 (NCI-H226): > 100 µM (inactive) | GI50 (NCI-H23): > 100 µM (inactive) | GI50 (NCI-H460): > 100 µM (inactive) | GI50 (NCI-H522): > 100 µM (inactive) | GI50 (NCI/ADR-RES): > 100 µM (inactive) | GI50 (OVCAR-4): > 100 µM (inactive) | GI50 (OVCAR-5): > 100 µM (inactive) | GI50 (OVCAR-8): > 100 µM (inactive) | GI50 (PC-3): > 100 µM (inactive) | GI50 (RPMI-8226): > 100 µM (inactive) | GI50 (RXF 393): > 100 µM (inactive) | GI50 (SF-268): > 100 µM (inactive) | GI50 (SF-295): > 100 µM (inactive) | GI50 (SK-MEL-28): > 100 µM (inactive) | GI50 (SK-MEL-2): > 100 µM (inactive) | GI50 (SK-MEL-5): > 100 µM (inactive) | GI50 (SK-OV-3): > 100 µM (inactive) | GI50 (SN12C): > 100 µM (inactive) | GI50 (SNB-19): > 100 µM (inactive) | GI50 (SNB-75): > 100 µM (inactive) | GI50 (SR): > 100 µM (inactive) | GI50 (SW-620): > 100 µM (inactive) | GI50 (T47D): > 100 µM (inactive) | GI50 (TK-10): > 100 µM (inactive) | GI50 (U-251): > 100 µM (inactive) | GI50 (UACC-257): > 100 µM (inactive) | GI50 (UACC-62): > 100 µM (inactive) | GI50 (UO-31): > 100 µM (inactive)

Cc1ccc(NC(=O)S(N)(c2ccc(C)cc2)[N+](=O)[O-])cc1 (stereo unspecified)
GI50 (A498): > 100 µM (inactive) | GI50 (BT-549): > 100 µM (inactive) | GI50 (CAKI-1): > 100 µM (inactive) | GI50 (CCRF-CEM): > 100 µM (inactive) | GI50 (COLO 205): > 100 µM (inactive) | GI50 (DU-145): 89.7 µM (inactive) | GI50 (HCC 2998): > 100 µM (inactive) | GI50 (HCT-116): > 100 µM (inactive) | GI50 (HCT-15): > 100 µM | GI50 (HL-60): 10 µM (inactive) | GI50 (HOP-62): > 100 µM (inactive) | GI50 (HOP-92): > 100 µM (inactive) | GI50 (HT-29): > 100 µM (inactive) | GI50 (Hs-578T): > 100 µM (inactive) | GI50 (IGROV-1): > 100 µM (inactive) | GI50 (K562): 8.87 µM (inactive) | GI50 (KM12): > 100 µM (inactive) | GI50 (LOX IMVI): > 100 µM (inactive) | GI50 (M14): > 100 µM (inactive) | GI50 (MCF7): > 100 µM (inactive) | GI50 (MDA-MB-231): > 100 µM (inactive) | GI50 (MDA-MB-435): > 100 µM (inactive) | GI50 (MDA-N): > 100 µM (inactive) | GI50 (MOLT-4): 84.7 µM (inactive) | GI50 (Malme-3M): > 100 µM (inactive) | GI50 (NCI-H226): > 100 µM (inactive) | GI50 (NCI-H23): > 100 µM (inactive) | GI50 (NCI-H460): > 100 µM (inactive) | GI50 (NCI/ADR-RES): > 100 µM (inactive) | GI50 (OVCAR-3): > 100 µM (inactive) | GI50 (OVCAR-4): > 100 µM (inactive) | GI50 (OVCAR-5): > 100 µM (inactive) | GI50 (OVCAR-8): > 100 µM (inactive) | GI50 (PC-3): > 100 µM (inactive) | GI50 (RPMI-8226): > 100 µM (inactive) | GI50 (RXF 393): > 100 µM (inactive) | GI50 (SF-295): > 100 µM (inactive) | GI50 (SK-MEL-28): > 100 µM (inactive) | GI50 (SK-MEL-2): > 100 µM (inactive) | GI50 (SK-MEL-5): > 100 µM (inactive) | GI50 (SK-OV-3): > 100 µM (inactive) | GI50 (SN12C): > 100 µM (inactive) | GI50 (SNB-19): > 100 µM (inactive) | GI50 (SNB-75): > 100 µM (inactive) | GI50 (SR): > 100 µM (inactive) | GI50 (SW-620): > 100 µM (inactive) | GI50 (T47D): 38 µM (inactive) | GI50 (TK-10): > 100 µM (inactive) | GI50 (U-251): > 100 µM (inactive) | GI50 (UACC-257): > 100 µM (inactive) | GI50 (UACC-62): > 100 µM (inactive) | GI50 (UO-31): 75 µM (inactive)
